Source: PMC3111092 (Journal of natural products, 2011)

How the values were obtained:
NF-κB p65 = test: ELISA based NF-κB p65 inhibitory assay in HeLa cells; assay type: cell-based; details: for NF-κB inhibition activity (in words): HeLa cells, p65 ELISA; for IC50: Homo sapiens, HeLa, read-out: NF-κB inhibitory activity IC50
Staphylococcus aureus = test: Antimicrobial agar plate diffusion assay; assay type: cell-based
Bacillus subtilis = test: Antimicrobial agar plate diffusion assay; assay type: cell-based
Escherichia coli = test: Antimicrobial agar plate diffusion assay; assay type: cell-based
TAK1 = details: reported previously; cited from earlier work

In the case of C[C@H]1C/C=C\C(=O)[C@@H](O)[C@@H](O)C/C=C/c2cc(O)cc(O)c2C(=O)O1 [compound 1, 15-O-desmethyl-5Z-7-oxozeaenol], the “NF-κB inhibition activity (in words)” value (NF-κB p65) is reported as “sub-micromolar”.
In the case of COc1cc(O)c2c(c1)/C=C/C[C@H](O)[C@H](O)[C@@H](O)/C=C/C[C@H](C)OC2=O [compound 2, zeaenol], the IC50 (NF-κB p65) is reported as > 50 µM, the MIC (Staphylococcus aureus) is reported as > 500 µg/mL and the MIC (Bacillus subtilis) is reported as > 500 µg/mL.
In the case of COc1cc(O)c2c(c1)/C=C/C[C@H](O)[C@H](O)[C@H](O)/C=C/C[C@H](C)OC2=O [compound 3, 7-epi-zeaenol], the IC50 (NF-κB p65) is reported as > 50 µM and the MIC (Escherichia coli) is reported as > 500 µg/mL.
In the case of COc1cc(O)c2c(c1)/C=C/C[C@H](O)[C@H](O)C(=O)/C=C\C[C@H](C)OC2=O [compound 5, 5Z-7-oxozeaenol], the “NF-κB inhibition activity (in words)” value (NF-κB p65) is given as “sub-micromolar”, the MIC (Staphylococcus aureus) is given as > 500 µg/mL and the TAK1 inhibition (TAK1) is given as “potent inhibitor”.
With CC1(C)S[C@@H]2[C@H](NC(=O)Cc3ccccc3)C(=O)N2[C@H]1C(=O)O [penicillin G, reference compound] the “lowest concentration at which biological activity could be detected” value (Escherichia coli; positive controls) was 100 μg/mL.
